Key:
A3A = biological target: T1, A3A (Homo sapiens, UniProt P31941); assay: DNA deaminase assay in A3A-expressing HEK-293T cell extracts; type: biochemical; conditions: A3A-transfected HEK-293T total cell extracts, compared with recombinant protein, FIG. 5
T1 construct: expressed in transfected cells; host or cells: HEK-293T
Description: Like the recombinant protein assay described above, assays with A3-containing cell extracts are done in 96 and 384 well formats and the read-out is relative fluorescence units.
The deaminase activity in the lysates was determined using a FRET-based assay essentially as described^59. […] FRET occurs between the fluorophores, decreasing FAM fluorescence. If cytidine deaminase activity is present in the lysates, the single cytidine is converted to uridine, which is then excised by uracil DNA glycosylase (NEB). Resulting abasic sites are cleaved by incubating reactions for 2 min at 95° C. Once cleaved, the FAM and TAMRA labels are physically separated, FRET diminishes, and FAM fluorescence increases. Fluorescence is measured on the Lightcycler 480 instrument (Roche).

[1] = tested on: A3 DNA deaminase (A3A or A3G); assay: fluorescence-based DNA deamination assay, high-throughput screening; type: biochemical, human; conditions: 10 μM library compound, inhibitors inhibit the reaction by 50% or more and reproduce in dose response
Source text: MN132, MN137, MN141, and MN152 are a few exemplary molecules identified from high-throughput screening. To screen for inhibitors of A3A or A3G DNA cytosine deaminase activity, a previously described fluorescence-based assay has been modified, optimized, and miniaturized (FIG. 2A) (30). C-to-U by A3A or A3G creates a substrate uracil that is excised by UDG, and the resulting abasic site is attacked by hydroxide to release 6-FAM fluorescence from the TAMRA quench. Recombinant A3A- or A3G-myc-His purified from a HEK-293-based cell line is incubated with uracil DNA glycosylase (UDG), 10 μM library compound (or a DMSO control), and a cytosine-containing, single-stranded DNA substrate attached to a 5′ 6-FAM fluorescent tag and a 3′ TAMRA quench molecule. During a 2 hr incubation period, the A3 protein deaminates 5′-C-to-U and UDG excises the uracil to leave an abasic site. DNA cleavage by NaOH produces a fluorescent signal by releasing the 6-FAM fluorophore from the TAMRA quench. This assay is highly sensitive and reproducible (A3G Z score=0.86 and A3A Z score=0.88 on the University of Minnesota ITDD HTS platform). […]
Protocols were developed for purification of A3-myc-His proteins from HEK-293 cells. […] High (80-90%) purity is achieved routinely, and all proteins show robust activity in our fluorescence-based C-to-U deaminase assay as shown in FIGS. 4C and 4D.

primary human monocytes = primary human monocytes nucleofected with a GFP expression vector; type: cell-based; conditions: 3 days post-transfection, flow cytometry, versus DMSO (not detectably transfected), FIG. 7B
Source text: Primary human monocytes were purified by negative selection and nucleofected with a GFP expression vector. Since these cells naturally express A3A, transfection with A3A expression plasmids was not necessary. The pool of transfected cells was split into wells containing media plus vehicle control or MN132. A variety of different cell lines (lymphoid, liver, breast, brain, epithelial, and colorectal origins) and distinct primary white blood cell types (T, B, monocyte, neutrophil, etc.) can be used in these experiments to test the central hypothesis that the endogenous A3s constitute a general barrier to foreign DNA and genetic engineering.

[2] = biological target: E. Coli uracil-DNA glycosylase (Escherichia coli, UniProt P12295); assay: control assay with UDG (U-containing oligos, without A3s); type: biochemical; conditions: specificity control, FIG. 2C
Source text: All newly synthesized compounds can be tested in dose response experiments against recombinant A3A and A3G to identify the sub-library_compounds that have dual-inhibitory activity like the parental molecules.
These initial experiments can also identify the subset with improved IC50 values. Second, all confirmed inhibitors can be tested against the other five recombinant human A3 proteins (A3BCDEFH) to identify broader-spectrum inhibitors. Third, reactions can be performed with U-containing oligos and UDG (i.e., without A3s) to re-confirm that all new inhibitors have not become general enzyme inhibitors. These assays can be carried out in 96 or 384 well plate formats. HEK-293T cells were transfected with an A3A expression plasmid, and total cell extracts were used in DNA deaminase assays. Non-transfected or A3A-E72A catalytic mutant transfected cell extracts show no activity (28).

T1 sequence (P31941 whole entry): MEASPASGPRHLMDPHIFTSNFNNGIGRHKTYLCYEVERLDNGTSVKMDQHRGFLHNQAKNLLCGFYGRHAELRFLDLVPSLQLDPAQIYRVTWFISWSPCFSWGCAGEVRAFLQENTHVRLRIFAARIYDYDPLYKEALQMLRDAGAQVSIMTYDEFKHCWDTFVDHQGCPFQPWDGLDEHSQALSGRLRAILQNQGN
E. Coli uracil-DNA glycosylase, sequence (P12295 whole entry): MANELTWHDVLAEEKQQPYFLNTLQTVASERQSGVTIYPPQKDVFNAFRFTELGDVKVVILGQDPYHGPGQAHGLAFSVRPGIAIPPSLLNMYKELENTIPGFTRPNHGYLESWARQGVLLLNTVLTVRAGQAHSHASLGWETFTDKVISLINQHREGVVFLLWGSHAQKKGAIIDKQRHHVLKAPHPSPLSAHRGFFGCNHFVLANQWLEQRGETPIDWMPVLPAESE

Structure (SMILES) | IC50 values in cell extracts (A3A) | inhibition of A3 DNA deaminase activity in vitro [1] | percentage of cells expressing GFP (primary human monocytes) | block of UDG [2]
Cc1ccc(-c2cc(C(=O)Nc3nnc(-c4ccncc4)s3)c3ccccc3n2)o1 [MN132, 2-(5-methylfuran-2-yl)-N-(5-(pyridin-4-yl)-1,3,4-thiadiazol-2-yl)quinoline-4-carboxamide] | higher | inhibit A3 DNA deaminase activity in vitro | dose dependent increases | 
O=C(O)C1=CC(=C(c2ccc(O)c(C(=O)O)c2)c2ccc(O)c(C(=O)O)c2)C=CC1=O [ATA] |  |  |  | lone exception
